Source: patent US20240165244A1 (Prelude Therapeutics Incorporated, priority 2022, published 2024)

Key:
SMARCA2 = biological target: T1, SMARCA2 (Homo sapiens, UniProt P51531); experiment: SMARCA2 HiBiT degradation assay in HeLa cells; assay type: cell-based; conditions: 18 hours, highest concentration 10 μM
T1 construct: SMARCA2-HiBiT knock-in Hela monoclonal cell (CS302366); host or cells: HeLa monoclonal cells with heterozygous HiBiT knock-in at the endogenous SMARCA2 locus
In short: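 HeLa cells carrying a heterozygous C-terminal HiBiT knock-in on SMARCA2 were seeded at 2500 cells/well. They were treated with 3-fold dilution series, top concentration 10 μM, for 18 h at 37 °C. Remaining SMARCA2-HiBiT was measured by Nano-Glo HiBiT lytic luminescence after 30-60 min at RT, followed by curve fitting.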

SMARCA4 = biological target: T2, SMARCA4 (Homo sapiens, UniProt P51532); experiment: SMARCA4 HiBiT degradation assay in HeLa cells; assay type: cell-based; conditions: 18 hours, highest concentration 10 μM
T2 construct: SMARCA4-HiBiT knock-in Hela monoclonal cell (CS3023226); host or cells: HeLa monoclonal cells with heterozygous HiBiT knock-in at the endogenous SMARCA4 locus
T2 sequence (P51532 whole entry): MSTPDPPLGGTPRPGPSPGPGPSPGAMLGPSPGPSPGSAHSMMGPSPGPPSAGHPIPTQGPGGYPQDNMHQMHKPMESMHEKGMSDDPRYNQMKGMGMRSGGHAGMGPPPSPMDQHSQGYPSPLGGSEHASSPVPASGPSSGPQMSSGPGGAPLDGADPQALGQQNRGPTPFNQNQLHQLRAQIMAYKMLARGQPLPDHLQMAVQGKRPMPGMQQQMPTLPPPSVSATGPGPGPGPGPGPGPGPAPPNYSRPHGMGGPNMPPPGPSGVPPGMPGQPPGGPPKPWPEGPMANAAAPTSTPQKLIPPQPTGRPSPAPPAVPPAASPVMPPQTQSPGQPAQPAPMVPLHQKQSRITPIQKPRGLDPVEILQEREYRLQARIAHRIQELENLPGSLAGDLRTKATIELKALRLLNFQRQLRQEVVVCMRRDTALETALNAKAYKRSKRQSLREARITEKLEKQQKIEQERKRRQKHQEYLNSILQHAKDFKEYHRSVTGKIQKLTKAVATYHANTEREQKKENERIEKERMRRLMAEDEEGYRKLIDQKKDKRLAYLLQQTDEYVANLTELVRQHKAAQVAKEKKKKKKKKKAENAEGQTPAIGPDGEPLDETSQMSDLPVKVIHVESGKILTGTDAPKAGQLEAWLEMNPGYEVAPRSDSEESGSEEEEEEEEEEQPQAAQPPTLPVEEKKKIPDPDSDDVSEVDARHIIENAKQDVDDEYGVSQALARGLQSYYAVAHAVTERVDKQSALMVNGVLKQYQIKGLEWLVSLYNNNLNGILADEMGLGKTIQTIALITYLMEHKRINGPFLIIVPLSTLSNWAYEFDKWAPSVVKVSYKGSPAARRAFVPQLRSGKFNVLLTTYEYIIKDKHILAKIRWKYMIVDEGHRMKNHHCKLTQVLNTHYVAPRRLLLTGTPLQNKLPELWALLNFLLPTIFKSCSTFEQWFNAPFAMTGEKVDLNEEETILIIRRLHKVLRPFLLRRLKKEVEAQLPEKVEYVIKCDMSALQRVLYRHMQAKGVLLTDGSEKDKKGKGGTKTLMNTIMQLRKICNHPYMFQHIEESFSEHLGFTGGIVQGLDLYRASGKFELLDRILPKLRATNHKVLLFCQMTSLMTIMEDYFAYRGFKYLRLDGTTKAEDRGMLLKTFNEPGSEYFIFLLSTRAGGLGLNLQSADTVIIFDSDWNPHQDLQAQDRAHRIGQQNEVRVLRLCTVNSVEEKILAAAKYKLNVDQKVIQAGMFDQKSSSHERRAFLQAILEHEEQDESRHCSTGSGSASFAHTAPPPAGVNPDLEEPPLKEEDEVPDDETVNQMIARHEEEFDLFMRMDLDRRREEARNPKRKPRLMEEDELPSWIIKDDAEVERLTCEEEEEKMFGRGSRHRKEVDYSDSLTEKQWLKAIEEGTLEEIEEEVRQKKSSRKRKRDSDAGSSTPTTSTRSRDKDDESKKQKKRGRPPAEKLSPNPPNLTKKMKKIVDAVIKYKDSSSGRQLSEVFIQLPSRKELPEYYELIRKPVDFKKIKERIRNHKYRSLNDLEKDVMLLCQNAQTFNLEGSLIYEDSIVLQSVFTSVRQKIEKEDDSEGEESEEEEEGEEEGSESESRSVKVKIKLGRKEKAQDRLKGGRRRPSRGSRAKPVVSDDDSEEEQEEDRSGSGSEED
In short: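 HeLa monoclonal cells with HiBiT knocked into SMARCA4 were seeded at 2500 cells/well, dosed with compound and incubated 18 hours at 37° C. HiBiT signal reported remaining SMARCA4 protein, and values came from curve fitting.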

T1 sequence (P51531 whole entry): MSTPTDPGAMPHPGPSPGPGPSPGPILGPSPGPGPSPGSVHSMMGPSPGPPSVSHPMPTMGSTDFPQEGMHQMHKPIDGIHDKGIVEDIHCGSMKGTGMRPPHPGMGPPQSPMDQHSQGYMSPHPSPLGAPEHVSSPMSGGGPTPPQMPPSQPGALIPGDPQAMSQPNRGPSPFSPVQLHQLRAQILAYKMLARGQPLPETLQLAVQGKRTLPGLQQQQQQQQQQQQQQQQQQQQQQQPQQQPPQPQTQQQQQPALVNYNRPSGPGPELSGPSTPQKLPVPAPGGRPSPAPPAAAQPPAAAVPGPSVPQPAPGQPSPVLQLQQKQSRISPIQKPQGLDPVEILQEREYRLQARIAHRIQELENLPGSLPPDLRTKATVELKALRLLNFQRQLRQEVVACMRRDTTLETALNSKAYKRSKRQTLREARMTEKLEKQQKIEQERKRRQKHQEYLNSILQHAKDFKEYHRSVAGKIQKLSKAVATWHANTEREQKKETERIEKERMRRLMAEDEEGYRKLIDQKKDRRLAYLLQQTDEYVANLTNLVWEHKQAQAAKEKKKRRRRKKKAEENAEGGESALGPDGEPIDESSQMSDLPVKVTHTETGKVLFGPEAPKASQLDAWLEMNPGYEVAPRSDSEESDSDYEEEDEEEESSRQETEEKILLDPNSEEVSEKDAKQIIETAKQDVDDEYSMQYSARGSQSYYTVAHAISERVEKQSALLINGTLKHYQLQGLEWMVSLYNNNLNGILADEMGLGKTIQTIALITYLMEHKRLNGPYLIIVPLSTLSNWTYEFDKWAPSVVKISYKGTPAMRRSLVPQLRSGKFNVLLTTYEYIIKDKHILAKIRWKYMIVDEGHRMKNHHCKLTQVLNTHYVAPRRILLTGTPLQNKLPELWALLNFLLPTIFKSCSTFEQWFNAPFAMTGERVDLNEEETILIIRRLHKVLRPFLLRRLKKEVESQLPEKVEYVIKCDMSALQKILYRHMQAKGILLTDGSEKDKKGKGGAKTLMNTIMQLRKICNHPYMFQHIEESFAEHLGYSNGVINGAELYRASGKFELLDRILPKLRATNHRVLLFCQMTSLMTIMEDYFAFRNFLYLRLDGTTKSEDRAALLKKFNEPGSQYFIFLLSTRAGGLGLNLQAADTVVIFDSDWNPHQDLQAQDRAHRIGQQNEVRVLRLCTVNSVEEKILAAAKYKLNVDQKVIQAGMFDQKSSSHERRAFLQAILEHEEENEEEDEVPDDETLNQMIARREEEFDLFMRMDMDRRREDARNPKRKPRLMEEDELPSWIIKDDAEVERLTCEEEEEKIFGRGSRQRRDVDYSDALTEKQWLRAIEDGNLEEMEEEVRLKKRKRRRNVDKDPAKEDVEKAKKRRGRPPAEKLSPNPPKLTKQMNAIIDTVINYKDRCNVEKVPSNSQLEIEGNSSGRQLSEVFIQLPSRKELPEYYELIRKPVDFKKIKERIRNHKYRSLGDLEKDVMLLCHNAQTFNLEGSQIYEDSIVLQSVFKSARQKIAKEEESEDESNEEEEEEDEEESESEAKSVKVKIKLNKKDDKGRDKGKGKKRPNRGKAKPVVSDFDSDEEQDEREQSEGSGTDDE

| SMILES | DC50 (SMARCA2) [nM] | Dmax (SMARCA2) [%] | DC50 (SMARCA4) [nM] | Dmax (SMARCA4) [%] |
| --- | --- | --- | --- | --- |
| Cc1cc(CN2CCC(c3ccc4c(c3)C(=O)N([C@H]3CCC(=O)NC3=O)C4)CC2)ncc1O[C@H]1CN2c3cc(-c4cccc(C)c4O)nnc3NC[C@]2(C(F)F)C1 [Example 94, (S)-3-(6-(1-((5-(((6aS,8R)-6a-(difluoromethyl)-2-(2-hydroxy-3-methylphenyl)-5,6,6a,7,8,9-hexahydropyrrolo [1′,2′:4,5]pyrazino[2,3-c]pyridazin-8-yl)oxy)-4-methylpyridin-2-yl)methyl)piperidin-4-yl)-1-oxoisoindolin-2-yl)piperidine-2,6-dione] | < 100 | 50 to 75 | > 1000 | < 50 |
| CC[C@@]12CNc3nnc(-c4cccc(C)c4O)cc3N1C[C@H](Oc1cnc(CN3CCC(c4ccc5c(c4)C(=O)N([C@H]4CCC(=O)NC4=O)C5)CC3)c(C)c1C)C2 [Example 95, (S)-3-(6-(1-((5-(((6aR,8R)-6a-ethyl-2-(2-hydroxy-3-methylphenyl)-5,6,6a,7,8,9-hexahydropyrrolo[1′,2′:4,5]pyrazino[2,3-c]pyridazin-8-yl)oxy)-3,4-dimethylpyridin-2-yl)methyl)piperidin-4-yl)-1-oxoisoindolin-2-yl)piperidine-2,6-dion] | < 100 | > 75 | > 1000 | < 50 |
| CC[C@]12CNc3nnc(-c4cccc(C)c4O)cc3N1C[C@H](Oc1nc(C)c(CN3CCC(c4ccc5c(c4)C(=O)N([C@H]4CCC(=O)NC4=O)C5)CC3)c(C)n1)C2 [Example 96, (S)-3-(6-(1-((2-(((6aS,8R)-6a-ethyl-2-(2-hydroxy-3-methylphenyl)-5,6,6a,7,8,9-hexahydropyrrolo[1′,2′:4,5]pyrazino[2,3-c]pyridazin-8-yl)oxy)-4,6-dimethylpyrimidin-5-yl)methyl)piperidin-4-yl)-1-oxoisoindolin-2-yl)piperidine-2,6-dione] | < 100 | > 75 | 100 to 1000 | < 50 |
| CC[C@]12CNc3nnc(-c4cccc(C)c4O)cc3N1C[C@H](Oc1cnc(CN3CCC(c4ccc5c(c4)C(=O)N([C@H]4CCC(=O)NC4=O)C5)CC3)c(C)c1)C2 [Example 97, (S)-3-(6-(1-((5-(((6aS,8R)-6a-ethyl-2-(2-hydroxy-3-methylphenyl)-5,6,6a,7,8,9-hexahydropyrrolo[1′,2′:4,5]pyrazino[2,3-c]pyridazin-8-yl)oxy)-3-methylpyridin-2-yl)methyl)piperidin-4-yl)-1-oxoisoindolin-2-yl)piperidine-2,6-dione] | < 100 | > 75 | < 100 | 50 to 75 |

The remaining lines, values ahead:

| DC50 (SMARCA2) [nM] | Dmax (SMARCA2) [%] | DC50 (SMARCA4) [nM] | Dmax (SMARCA4) [%] | SMILES |
| --- | --- | --- | --- | --- |
| < 100 | > 75 | > 1000 | < 50 | Cc1cc(O[C@H]2CN3c4cc(-c5cccc(F)c5O)nnc4NC[C@@]3(CF)C2)ncc1CN1CCC(c2ccc3c(c2)C(=O)N([C@H]2CCC(=O)NC2=O)C3)CC1 [Example 93, (S)-3-(6-(1-((6-(((6aR,8R)-2-(3-fluoro-2-hydroxyphenyl)-6a-(fluoromethyl)-5,6,6a,7,8,9-hexahydropyrrolo [1′,2′:4,5]pyrazino[2,3-c]pyridazin-8-yl)oxy)-4-methylpyridin-3-yl)methyl)piperidin-4-yl)-1-oxoisoindolin-2-yl)piperidine-2,6-dione] |
| < 100 | > 75 | < 100 | > 75 | CC[C@]12CNc3nnc(-c4cccc(C)c4O)cc3N1C[C@H](Oc1cc(C)c(CN3CCC(c4ccc5c(c4)C(=O)N([C@H]4CCC(=O)NC4=O)C5)CC3)cn1)C2 [Example 98, (S)-3-(6-(1-((6-(((6aS,8R)-6a-ethyl-2-(2-hydroxy-3-methylphenyl)-5,6,6a, 7,8,9-hexahydropyrrolo[1′,2′:4,5]pyrazino[2,3-c]pyridazin-8-yl)oxy)-4-methylpyridin-3-yl)methyl)piperidin-4-yl)-1-oxoisoindolin-2-yl)piperidine-2,6-dione] |
